Experimental data published in article PMC12851007 (Angewandte Chemie (International Ed. in English), 2025).
Like-named read-outs stand apart in the source and are kept apart here.

What was measured:
[1] = format: binding; settings: LCG displacement in 10 mM Hepes, pH 7.0, 25 °C; fluorescence; error = SD of nonlinear fit, n = 1
Experimental: Fluorescence titrations were performed as previously described and the resulting titration curves we re an al yz ed usi ng established pro cedur es . Competitive titrations were eithe r anal yz ed with a fitting function assuming 1:1 host-competitor complexes[3] or with a fitting function involving hi gher complex es with more than on e h ost bound per peptide.[4] In the latter c ase, an identical binding affinity is assumed for all binding sites. […]
Figure S1. a) Fluorescence titration of 0.5 µM LCG ( λex = 369 n m) with varying concentrations of CX4 in 10 mM Hepes, pH 7.0, 25 °C .b) Respective titration curve ( λem = 502 nm) with fitted line . […]
Figure S2. a) Competitive fluorescence titration wit h 0.5 µM LCG, 1 µM CX4 ( λex = 369 nm) and varying concentrations of penetratin in 10 mM Hepes, pH 7.0, 25 °C . b) Respective titration c ur ve (λem = 502 nm) with fitted line .
(also on this page, place not known: analyzed using procedures. were either analyzed host -competitor higher complexes one host case, 700 Intensity Intensity (λex °C. line. 650 0 Intensity 0 Intensity b) curve (λem nm) with line.)

[2] = Dual-channel assay, CX4/LCG channel, POPC vesicles; format: in vitro ADME; settings: dual-channel; seven independent POPC LUV batches (n = 7), penetratin 15 µM, Pep-1 10 µM, LRLLRW 30 µM, TP10 0.15 µM, 10 mM Hepes, 175 mM glucose, pH 7.5, t-test/ANOVA p < 0.001; melittin: Figure S35 and Table S9
Source text: With the established identical extravesicular conditions in both assays, we further envisaged a simultaneous measurement of both assays within the same solution to enhance the comparability of the measurements. This became possible after optimization of the excitation and emission wavelengths. […] A further optimization was required, because the dye concentrations in the CF assay and the CX4/LCG assay are largely different.^[ [51], [52] ^] Consequently, simultaneous monitoring requires the detection of a low amount of LCG in the presence of a high concentration of the much more brightly fluorescent CF, which challenges the dynamic range of a typical fluorescence spectrometer in a dual‐channel measurement. To reduce the fluorescence read‐out of CF, the excitation wavelength was shifted from the absorption maximum at ca. 490 nm to 525 nm, where CF has a much lower absorbance, and the emission in the CF channel was shifted from its maximum at ca. 515 nm to 545 nm to further reduce the fluorescence of CF. To maintain a high LCG fluorescence, excitation was performed at the absorption maximum at 369 nm. Since CF has a residual absorbance at this excitation wavelength, emission in the LCG channel was monitored at 475 nm instead of 502 nm to eliminate spill‐over of CF fluorescence into the LCG channel. […]
Time-dep endent fluores cence intensit y traces, I (t), were subsequentl y normalized to fractional intensities, If(t), using equation (1) and the concentration- dependent fractional intensities just before the addition of th e calibration co cktail, I f, w ere then normaliz ed to fr actional membran e activities, Y, using equation (2). The fractional membrane activities, Y, were subsequently plotted against the peptide concentration, c, and anal ysed using the Hill equation (3) to obtain the effective molar concentration, EC 50, and the Hill coefficient, n. For peptides with too low activity to determine Y max ex perimentall y, Y max was fixed at 1.0 during fitting. […]
Dual-Channel Measurements
Vesicles w ere prep ared a s described abov e (se e en try (4) in Table S2 and entry (3) in Table S3) and eluted with freshl y prepared 10 mM Hepes, 175mM glucos e, pH 7.5 i n the size exclusion chromatograph y. For the measurements, an approp riate volume o f the liposome stock solutions was diluted to 2m L in a 10× 10 mm PS cuvette wi th 10 mM Hep es bu ffer and 175 mM glucos e at pH 7.5 to afford 12.5µM POPC ⊃CX4/LCG-LUVs and 12.5 µM POPC⊃CF-LUVs (25 µM POPC total). The cuvette was placed into a thermostatted fluorimeter sample holder at 25.0 °C and gentl y stirred at 300 rpm. The fluorescence intensity w as simultaneous l y r eco rded in the CF chann el ( λ exc = 525 nm, λ em = 545 nm) and in the LCG channel ( λ exc = 369 nm, λ em = 475 nm) with an ex citation slit width of 5 nm and an emission slit width of 5 n m during addition of 20 µL peptide stock solution of varying concentrations at 60 s and 20 µL of a calibration

[3] = CX4/LCG tandem membrane assay with subsequent addition of spermine (transient vs stable pores); format: in vitro ADME; settings: TP10 0.2 µM or melittin 5 nM at 60 s, spermine 20 µM at 340 s, 10 mM Hepes, 175 mM glucose, pH 7.5
Experimental: This means that TP10 renders the vesicle membranes only transiently permeable, while after some time, the pores “close”, most likely due to equilibration of the inside and outside concentrations of TP10. At sufficiently low TP10 concentrations, the vesicles have consequently released only some of their content after a certain incubation time and no further release of encapsulated compounds is observed thereafter. The transient nature of the TP10 pores was also confirmed herein by the CX4/LCG tandem membrane assay (Figure 4, black line). […] At this point of time, the TP10 pores should be either closed, or there should be some remaining stable equilibrium pores, which are too small to allow efflux of relatively large CX4 and/or LCG (MW > 500 Da), but sufficiently large to allow CF efflux (MW = 376 Da). Closed pores would refer to the previously reported graded mechanism, whereas the latter would point toward an all‐or‐none release mechanism.^[ [12], [70] ^] […] The newly developed assay has therefore the added capacity to afford more fine‐grained mechanistic information on membrane activity.
The blue trace is a control to illustrate full dissociation of the CX4/LCG complex during vesicle lysis by TX‐100.
LysisLysis vesicle lysisvesicle lysis […]
calibration cocktail at 600 s. a) Original changes in fluorescence intensity of LCG ( λex = 369 nm, λem = […]

[4] = CX4/LCG supramolecular tandem membrane assay, POPC vesicles; format: in vitro ADME; settings: 30 µM peptide; 25 µM POPC⸧CX4/LCG-LUVs (inside 700 µM CX4, 500 µM LCG) in 10 mM Hepes, pH 7.0, 25 °C; fluorescence λexc 369/λem 502 nm; peptide at 60 s, TX-100/protamine at 600 s; fractional activity; n = 1
Experimental: Membrane Activity M easurements
Vesicle preparation. 100 µ L of a solution of 25 mg/ml of POPC in chloroform or 200 µ L of a solution of 25 mg/ml of EYPC in chloroform was purged with nitrogen and dried overnight under hi gh vacuum. The thin lipid film was rehydrated with 1 ml reh ydrati on buffer (= inside buffer, see Tabl e S2 ) b y agitation at room temperature for 30min and then subjected to 2 0 freeze- th aw c ycles (freezing in liquid nitro gen and thawing at 40 °C). […]
Ta b l e S 2. Combinations of lipids and inside and outside buffer for CX4/LCG -LUVs.
No. Lipid Inside buffer = rehydration buffer Outside buffer
(4) POPC 10 mM Hepes, 700 µM CX4, 500 µM LCG, 10 mM Hepes buffer, 175 mM glucose, pH 7.5 [a] 175 mM glucose, pH 7.5 [a]
[a] Glucose b uffers (183 mOsm/L at 25 °C) were used within one week after preparation.
Vesicle quality control. T o ensure the absence of the CX4/ LCG reporter pair in the ex travesicular ph ase, 20 µL of the collected liposome fr action w as diluted to 2 ml with outside buffer and the fluor escen ce (λ exc = 369 nm; λ em = 502 nm) was recorded during the addition of […]
The final lipid content in the liposome suspension after p repa rat ion and separ ation was d etermined b y NMR as p reviousl y reported. Assay protocol. An appropriate volume of the liposome stock solutions was diluted to 2m L with outside buffer in a 10 ×10 mm quartz glass cuvette to afford a phospholipid concentration of 25 µM. The cuvette was placed into a thermostatted fluorimeter sample holder at 25.0 °C and gentl y stirred at 300 rpm. Subsequently, the time-dependent change in fluorescence intensity (λ exc = 369 nm; λ em = 502 nm) was record ed during addition of 20 µ L of peptide stock solutions of varying concentrations at 60 s. At 600 s, 20µ L o f a solution containing 1.6% (wt/vol) TX-100 and 1.5 mM protamine was added for calibration to affo rd 0.016% (wt/vol) TX-100 and 15 µM protamine final concent rations.
Time-dep endent fluores cence intensit y traces, I (t), were subsequentl y normalized to fractional intensities, If(t), using equation (1). Therein, I 0 is the intensity just before addition of peptide and I ∞ is the constant intensit y after addition of the calibration cockt ail.
IIf (tt ) = II (tt )−II0II∞ − II0 (1)
The concentration-dependent fractional intensities just before the addition of the calibration cocktail, If, were then normalized to fractional membrane activities, Y, using equation (2).
Therein, If,0 is the fractional intensit y just before addition of the calibration cocktail in absence of peptide and I f,∞ is the constant fractional intensity after addition of the calibration cocktail.
YY = IIf − IIf,0IIf,∞ − IIf,0 (2)
The fractional membrane activities, Y, were subsequently plotted against the peptide concentration, c, and analysed using the Hill equation (3) to obtain the effective molar concentration, EC50, and the Hill coefficient, n. Y0 and Y ma x are the fractional membrane activities in absen ce o f p eptide and at max imal peptide concent rations. For peptides with too little activity to determine Y ma x ex perimentall y, Y max was fixed at 1.0 during fitting. […]

[5] = In 10 mM NaH2PO4, pH 7.2; ref [46]; cited from earlier work
Source text: Table 1 Binding constants of peptides to CX4. ^a) | column: K a (M^−1)

For `CC[C@H](C)[C@H](NC(=O)CN)C(=O)NCC(=O)N[C@@H](C)C(=O)N[C@H](C(=O)N[C@@H](CC(C)C)C(=O)N[C@@H](CCCCN)C(=O)N[C@H](C(=O)N[C@@H](CC(C)C)C(=O)N[C@H](C(=O)N[C@H](C(=O)NCC(=O)N[C@@H](CC(C)C)C(=O)N1CCC[C@H]1C(=O)N[C@@H](C)C(=O)N[C@@H](CC(C)C)C(=O)N[C@H](C(=O)N[C@@H](CO)C(=O)N[C@@H](Cc1c[nH]c2ccccc12)C(=O)N[C@H](C(=O)N[C@@H](CCCCN)C(=O)N[C@@H](CCCNC(=N)N)C(=O)N[C@@H](CCCCN)C(=O)N[C@@H](CCCNC(=N)N)C(=O)N[C@@H](CCC(N)=O)C(=O)N[C@@H](CCC(N)=O)C(N)=O)[C@@H](C)CC)[C@@H](C)CC)[C@@H](C)O)[C@@H](C)O)C(C)C)C(C)C` [Melittin], which “K a, binding constant of peptide to CX4” value [1] is on record?
Its value is “(1.2 ± 0.3) × 10^7 M^−1”.

What about the “membrane activity in the CX4/LCG channel compared with the CF channel” value [2] of the same compound?
Its value is “higher activity with the CF assay”.

And the “kind of pores (fluorescence response to spermine added after the peptide)” value [3]?
Its value is “forms stable equilibrium pores”.

With `N=C(N)NCCC[C@H](NC(=O)[C@H](CCCNC(=N)N)NC(=O)[C@H](CCCNC(=N)N)NC(=O)[C@H](CCCNC(=N)N)NC(=O)[C@H](CCCNC(=N)N)NC(=O)[C@H](CCCNC(=N)N)NC(=O)[C@@H](N)CCCNC(=N)N)C(=O)O` [Peptide R7, heptaarginine] as the compound, how does the “Y30µM, membrane activity, CX4/LCG assay” value [4] read?
Its value is 0.17.

And the “K a, binding constant of peptide to CX4” value [5]?
Its value is “(7.2 ± 0.5) × 10^7 M^−1”.

Which results are given for `N=C(N)NCCC[C@H](NC(=O)[C@H](CCCNC(=N)N)NC(=O)[C@H](CCCNC(=N)N)NC(=O)[C@H](CCCNC(=N)N)NC(=O)[C@H](CCCNC(=N)N)NC(=O)[C@H](CCCNC(=N)N)NC(=O)[C@H](CCCNC(=N)N)NC(=O)[C@H](CCCNC(=N)N)NC(=O)[C@@H](N)CCCNC(=N)N)C(=O)O` [Peptide R9, nonaarginine]?
K a, binding constant of peptide to CX4 [1]: (1.8 ± 0.4) × 10^8 M^−1; Y30µM, membrane activity, CX4/LCG assay [4]: 0.11
